Assay results taken from patent publication US12398093B2, “Compounds and methods for treating inflammatory disorders” (Board of Supervisors of Louisiana State University and …, priority 2019, dated 2025).
Read-outs that look alike come from different tables or passages of the source.

Legend:
[1] = test system: adult male Brown Norway rats; test: Ovalbumin allergic asthma model, whole body plethysmography (ΔPenh) after methacholine challenge; assay type: in vivo; conditions: for Prevention of AHR (ΔPenh/PenH) in response to OVA: rats
Description: A modification of the ovalbumin model of allergic asthma and whole body plethysmography protocol as described in Nau et al. (Am. J. Physiol. Lung Cell Mol. Physiol. 2015, 308(2): L191-L198; incorporated herein by reference) was used to determine ΔPenh, a measure of airways hyperresponsiveness (AHR), in response to methacholine challenge in adult male Brown Norway rats. Results, shown in FIGS. 2A-2G, represent PenH change measured in the ovalbumin allergic asthma assay in rats, with the exception of FIG. 2C, which was measured in mice, for nebulized inhaled drug. Statistics were performed using 2-way ANOVA with Tukey post hoc test for multiple comparisons.
Allergic asthma is defined as a chronic inflammatory disorder of the airways. This disease is characterized by airway inflammation, persistent airways AHR and intermittent, reversible airways obstruction.
Area under the curve of PenH values (PenH-AUC) in response to incremental doses of metacholine were calculated for each testing groups, naïve, OVA treated, and OVA+DRUG treated animals. A reduction in PenH-AUC values of more than 75% of the control values (OVA alone) was annotated as a strong efficacy. […] Additional to this information are provided the relative to R-DOI EC50 values (ratio) of tested compounds in 5-HT2AR heterologous cell-based calcium transient assay. […] FIG. 3 illustrates the non-correlative nature of the therapeutic efficacy of the phenylethylamines class of compounds against inflammatory-mediated allergen-induced AHR and the reported evidences of the dose necessary for psychoactive disturbances experienced with these compounds in humans or the potency and strength of these compounds to the 5-HT2AR in calcium transients assays.
Inhibition of ΔPenh as a function of 2C-iBu concentration was studied by nebulization nose-only administration of 2C-iBu to male adult Brown Norway rats as described above. Area under the curve for each treatment group at a given dose of 2C-iBu for ΔPenh is plotted on the Y-axis versus concentration of 2C-iBu on the X-axis.

[2] = In vitro protein binding in human plasma; assay type: in vitro ADME; conditions: 1.0×10^−5 M; for % Protein bound, 1st / % Protein bound, 2nd / % Protein bound, Mean: human plasma; for recovery: human, plasma, protein binding assay
5-HT1A (h) = target: T1, 5-HT1A (h) (Homo sapiens, UniProt P08908); test: Radioligand binding, agonist radioligand [3H]8-OH-DPAT
T1 construct: membrane preparations
T1 sequence (P08908 1-422): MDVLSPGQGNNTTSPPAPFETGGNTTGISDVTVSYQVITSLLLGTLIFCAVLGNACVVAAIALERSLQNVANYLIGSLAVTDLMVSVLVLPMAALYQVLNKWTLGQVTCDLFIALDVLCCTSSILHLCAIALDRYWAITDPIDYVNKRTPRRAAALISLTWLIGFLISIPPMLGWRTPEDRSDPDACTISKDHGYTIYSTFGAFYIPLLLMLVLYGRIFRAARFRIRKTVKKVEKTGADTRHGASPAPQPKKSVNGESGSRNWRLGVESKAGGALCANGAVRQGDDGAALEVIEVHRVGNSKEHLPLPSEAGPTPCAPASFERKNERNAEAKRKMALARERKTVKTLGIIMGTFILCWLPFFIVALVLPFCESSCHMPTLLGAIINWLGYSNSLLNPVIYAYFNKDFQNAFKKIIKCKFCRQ

5-HT2A (h) = 5-HT2A (h) (Homo sapiens, UniProt P28223); test: Radioligand binding, agonist radioligand [125I](±)DOI
Sequence of 5-HT2A (h) (P28223 whole entry): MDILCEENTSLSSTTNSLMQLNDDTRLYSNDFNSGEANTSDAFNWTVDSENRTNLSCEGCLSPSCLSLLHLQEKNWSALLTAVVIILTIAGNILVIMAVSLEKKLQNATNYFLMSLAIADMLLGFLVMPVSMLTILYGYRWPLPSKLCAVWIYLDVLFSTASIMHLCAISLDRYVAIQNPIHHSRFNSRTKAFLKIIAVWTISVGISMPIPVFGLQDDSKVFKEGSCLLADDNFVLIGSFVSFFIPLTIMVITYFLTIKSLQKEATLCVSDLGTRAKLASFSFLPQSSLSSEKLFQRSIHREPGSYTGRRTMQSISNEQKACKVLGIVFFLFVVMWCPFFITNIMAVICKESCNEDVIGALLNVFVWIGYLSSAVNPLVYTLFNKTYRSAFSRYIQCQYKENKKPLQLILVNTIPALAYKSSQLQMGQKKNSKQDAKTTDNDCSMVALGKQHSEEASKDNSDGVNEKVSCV

5-HT7 (h) = target: T2, 5-HT7 (h) (Homo sapiens, UniProt P34969); test: Radioligand binding, agonist radioligand [3H]LSD
T2 construct: membrane preparations
T2 sequence (P34969 whole entry): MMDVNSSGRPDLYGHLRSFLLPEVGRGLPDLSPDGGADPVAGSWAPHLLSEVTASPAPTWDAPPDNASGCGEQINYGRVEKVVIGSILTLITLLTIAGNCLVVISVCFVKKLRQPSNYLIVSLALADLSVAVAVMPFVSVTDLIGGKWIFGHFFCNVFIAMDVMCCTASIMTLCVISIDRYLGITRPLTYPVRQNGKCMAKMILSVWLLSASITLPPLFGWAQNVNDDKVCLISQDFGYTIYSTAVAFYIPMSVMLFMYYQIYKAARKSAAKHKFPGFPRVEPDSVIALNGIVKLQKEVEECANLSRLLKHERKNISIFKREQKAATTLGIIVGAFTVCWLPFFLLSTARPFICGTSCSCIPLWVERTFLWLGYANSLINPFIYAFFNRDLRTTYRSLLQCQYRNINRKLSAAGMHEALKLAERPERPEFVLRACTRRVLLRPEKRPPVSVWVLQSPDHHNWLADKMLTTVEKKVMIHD

[3] = log D at physiological pH; assay type: physicochemical; conditions: pH 7.4
Description: This differential in the physico-chemical properties could be one of the drivers in the observed increased plasma protein binding capability of 2Ci-Bu in comparison to R-DOI and the moderate changes in the Caco-2 A-B/B-A permeability profiles.

5-HT6 (h) = target: T3, 5-HT6 (h) (Homo sapiens, UniProt P50406); test: Radioligand binding, agonist radioligand [3H]LSD
T3 construct: membrane preparations
T3 sequence (P50406 whole entry): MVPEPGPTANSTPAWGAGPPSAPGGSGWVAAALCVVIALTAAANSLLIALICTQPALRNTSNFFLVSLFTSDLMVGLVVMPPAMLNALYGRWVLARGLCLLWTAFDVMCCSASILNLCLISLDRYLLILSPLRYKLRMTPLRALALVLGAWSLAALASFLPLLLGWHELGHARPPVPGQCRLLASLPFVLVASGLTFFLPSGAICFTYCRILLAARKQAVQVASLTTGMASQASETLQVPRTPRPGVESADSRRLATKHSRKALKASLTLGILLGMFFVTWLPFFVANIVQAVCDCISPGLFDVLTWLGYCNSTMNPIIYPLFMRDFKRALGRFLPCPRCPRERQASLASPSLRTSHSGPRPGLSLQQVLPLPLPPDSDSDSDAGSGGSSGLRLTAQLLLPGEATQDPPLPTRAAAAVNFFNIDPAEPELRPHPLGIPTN

5-HTB = 5-HTB (Rattus norvegicus, UniProt P28564); test: Radioligand binding, antagonist radioligand [125I]CYP
Sequence of 5-HTB (P28564 whole entry): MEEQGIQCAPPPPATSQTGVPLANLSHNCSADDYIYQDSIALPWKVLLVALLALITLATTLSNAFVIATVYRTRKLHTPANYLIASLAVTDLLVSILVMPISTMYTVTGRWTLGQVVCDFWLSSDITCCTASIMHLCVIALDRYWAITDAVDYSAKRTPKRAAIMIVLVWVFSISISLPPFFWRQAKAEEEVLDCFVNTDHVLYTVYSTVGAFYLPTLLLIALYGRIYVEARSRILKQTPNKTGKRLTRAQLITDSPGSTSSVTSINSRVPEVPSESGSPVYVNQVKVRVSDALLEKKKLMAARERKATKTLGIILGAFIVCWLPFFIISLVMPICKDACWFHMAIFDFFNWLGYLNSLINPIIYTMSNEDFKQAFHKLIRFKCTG

5-HT1D = target: T4, 5-HT1D (Rattus norvegicus, UniProt P28565); test: Radioligand binding, agonist radioligand [3H]serotonin; set-up: species or system human
T4 construct: membrane preparations
T4 sequence (P28565 whole entry): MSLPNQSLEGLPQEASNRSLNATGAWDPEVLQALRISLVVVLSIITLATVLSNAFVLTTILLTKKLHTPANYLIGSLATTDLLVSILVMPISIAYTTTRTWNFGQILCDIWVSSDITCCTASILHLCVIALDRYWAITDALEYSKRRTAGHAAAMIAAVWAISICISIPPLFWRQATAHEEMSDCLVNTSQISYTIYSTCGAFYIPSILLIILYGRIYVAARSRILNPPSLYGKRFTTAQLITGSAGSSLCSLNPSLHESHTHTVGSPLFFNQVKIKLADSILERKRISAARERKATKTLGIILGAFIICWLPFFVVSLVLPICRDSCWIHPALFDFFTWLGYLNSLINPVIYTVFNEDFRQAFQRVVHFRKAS

SMILES	ED50 ([1]; Rattus norvegicus, nebulization nose-only administration, rats (FIG. 4), read-out: ED50, inhibition of ΔPenh (AUC))	Prevention of AHR (ΔPenh/PenH) in response to OVA ([1]; dose not printed (FIG. 2G))	% Protein bound, 1st [2]	% Protein bound, 2nd [2]	% Protein bound, Mean [2]	recovery ([2]; read-out: % Recovery, 1st)	recovery ([2]; read-out: % Recovery, 2nd)	recovery ([2]; read-out: % Recovery, Mean)	Ki (5-HT1A (h))	Ki (5-HT2A (h))	Ki (5-HT7 (h))	logD [3]	Ki (5-HT6 (h))	Ki (5-HTB)	Ki (5-HT1D)	Prevention of AHR (ΔPenh/PenH) in response to OVA ([1]; 1.0 mg/kg, nebulized inhaled drug)
COc1cc(CC(C)C)c(OC)cc1CCN [2C-iBu, 2,5-dimethoxy-4-isobutylphenethylamine]	2.7 µg/kg	did not result in a decrease in efficacy compared to (R)-DOI	73.7%	74.5%	74%	107%	105%	106%	79.4 nM	1.26 nM	316 nM	1.64	1260 nM	50.1 nM	63.1 nM	
COc1cc(C[C@@H](C)N)c(OC)cc1I [R-DOI]			47.5%	49.6%	49%	126%	126%	126%				1.04		2510 nM		full efficacy at preventing AHR
